The values that follow are results of earlier work, collected in patent US6384246B1, “Process for the preparation of maltol from plants belonging to the genus Abies” (Council of Scientific & Industrial Research, priority 2001, dated 2002).

The conditions of the data set: in ethylene glycol at ambient temperature.

On to `Cc1occc(=O)c1O` [maltol, 2-methyl-3-hydroxy-4-pyrone], for which the “solubility of maltol in ethylene glycol” value is reported as “about 4%”.
